These results are taken from a melting point compilation (Tetko et al.; mined from patent text by program, amines drawn as free bases though some values may be those of a salt).

A value given as a limit tells only on which side of the number the result lay.

Regarding `Clc1ccc(COC(CNc2ccc(Cl)cc2Cl)Cn2ccnc2)cc1` (stereo unspecified), the melting point (in general, the temperature of the solid-liquid transition) is 93 to 95 °C.
In the case of `CCc1nc2cc(N(C)C)c(Cl)cc2n1-c1ccc(CCNC(=O)NS(=O)(=O)c2ccc(C)cc2)cc1` it was 108 to 114 °C; in that of `CC(=O)OC1CSC(Oc2cnc(Cl)c(F)c2)C(OC(C)=O)C1OC(C)=O` (stereo unspecified), 158 to 162 °C; in that of `CCC(=O)OC1CC2(CCN(CCCC(=O)c3ccc(F)cc3)C2)c2ccc(C)cc21` (stereo unspecified), 153 to 155 °C.
Molecule `CC(C)(C)OC(=O)Nc1ccc(C#Cc2ccccc2F)cc1[N+](=O)[O-]` showed a melting point of 140 to 142 °C.
The value for `Cc1c(O)ccc2cc(Br)ccc12` was 127 to 129 °C; that for `COc1ccc(-n2c(-c3ccc(S(N)(=O)=O)cc3)cc(C)c2Cl)cc1` was 155 to 156 °C.
In the case of `O=Cc1cc([N+](=O)[O-])ccc1Oc1ccc(F)cc1` it was 125 to 126 °C.
`Cc1cc2nc(/C=C/c3ccccc3)n(-c3ccccn3)c2cc1C`: the melting point lay within 136 to 137 °C.
Molecule `CC1(C(=O)Nc2ccc(S(C)(=O)=O)c(C(F)(F)F)c2)CC1` came in with a melting point of 135 to 138 °C.
In the case of `O=C(/C=C/C1CCCCC1)N1CCN(C(=O)c2cc(C(F)(F)F)cc(C(F)(F)F)c2)[C@H](Cc2c[nH]c3ccccc23)C1` it was 198 to 200 °C; in that of `O=C(O)CCCOc1ccc(CSc2[nH]nc(NS(=O)(=O)c3c(Cl)cccc3Cl)c2-c2ccccn2)cc1`, 183 to 185 °C; in that of `CC(C)[C@H](NC(=O)OCc1ccc2ccccc2n1)C(=O)N[C@@H](Cc1ccccc1)[C@@H](O)C[C@H](Cc1ccccc1)NC(=O)OCc1cccnc1`, 159 to 163 °C.
In the case of `N#CNC(=NCCN)NC1CCCC(c2csc(NC(=N)N)n2)C1` (stereo unspecified) it was 203 to 205 °C.
In the case of `O=C1c2ccc(C(F)(F)F)cc2C(=O)N1c1ccc2ccc(Cl)nc2n1` it was 265 °C; in that of `CCCc1c(OCCCCCC(=O)c2ccc3cc(O)c(O)cc3c2)ccc(C(=O)OCC)c1O`, 170 to 172 °C.
`Cc1nc(C)c(CO)c(C)n1`: the melting point came to 68 °C.
On to `COC(=O)Cc1cccc(NC(=O)NC2C(=O)Nc3ccccc3NC2=O)c1`, for which the melting point was more than 300 °C.
For the molecule `CNc1cc(N(C)S(=O)(=O)c2ccc(N)cc2)nc(NC)n1`, the melting point was in the range of 79 to 80 °C.
In the case of `CCOc1nn(C(=O)NS(=O)(=O)Nc2c(C)cccc2C(=O)CC)c(=O)n1C` it was 134 °C.
Molecule `Cc1nc(C(=O)NN)c2n1-c1ccc(Cl)cc1C(c1ccccc1F)=NC2` registered a melting point of 235 to 237 °C.
The value for `O=C(NC1CCN(CCCC2=CCc3ccccc32)CC1)c1ccccc1` was 157 to 159 °C; that for `C=CC=CCC1CC(NC(=O)C(F)(F)F)C(O)C(C)O1` (stereo unspecified) was 111 to 112 °C; that for `CC(C)Cn1c(CCCCNC(=O)c2ccccc2)nc2c(N)nc3ccccc3c21` was 95 to 101 °C.
In the case of `CC(C)CC(C)(C#N)N=NC(C)(C#N)CC(C)C` (stereo unspecified) it was 52 to 56 °C; in that of `O=C(Nc1ccc(Cl)c(Cl)c1)NS(=O)(=O)c1ccc2c(c1)C(=O)CO2`, 209 to 211 °C.
In the case of `COC(=O)CC(=O)c1ccc(-c2ccccc2)cc1` it was 82 °C; in that of `Nc1cccc(C(CC2CCCC2)C(=O)Nc2nccs2)c1` (stereo unspecified), 158 to 160 °C.
The molecule `COc1ccccc1[C@H](c1cccc2ccccc12)[C@@](C)(C#N)C(=O)N1CCN(c2cccc(Br)c2)CC1` returned a melting point of 180 to 182 °C.
The value for `O=C(Nc1ccc(SCCCCCCCCCCCCC(Cl)(Cl)C(=O)O)cc1)c1ccc(Cl)cc1` was 167 to 168 °C; that for `Cc1ccc2c(c1)c(CCNC(=O)c1ccccc1)c1n2C(=O)CCC1` was 171 °C.
`COC=C(C#N)CNC=O` registered a melting point of 84 to 86 °C.
The molecule `Nc1nc2ccccc2c2c1ncn2CCCCNC(=O)c1ccc2ncccc2c1` displayed a melting point of 122 to 127 °C.
In the case of `Cc1cc(SC(C)c2ccc3cn(-c4ccc(C(F)(F)F)cc4)nc3c2)ccc1OC(C)(C)C(=O)O` (racemic) it was 114 to 116 °C; in that of `Cc1nnc(CN2CCCC2)n1-c1ccc(Cl)cc1C(=O)c1ccccc1`, 174 to 176 °C.
Molecule `CN1C[C@H](CCN2CCN(C(c3ccccc3)c3ccccc3)CC2)C=C2c3cccc4[nH]cc(c34)C[C@H]21` showed a melting point of 165 to 169 °C.
As for `CCOC(=O)C(Cc1cc2cc(C#N)ccc2o1)c1ccc(O)cc1` (stereo unspecified), the melting point fell in the range of 140 to 142 °C.
Regarding `CCCCCCCCCCCc1cc(O)c(CCCCCC)c(=O)o1`, the melting point was in the range of 83 to 84 °C.
The value for `CNC(=O)/C(=N/OC)c1ccccc1Oc1cc(C)cc(C)c1` was 90 to 91 °C; that for `N#Cc1ccc2oc(CCc3ccc(C(=O)O)cc3)cc2c1` was 234 to 235 °C.
In the case of `COc1ccc2c(c1)CCc1nn(-c3nc4ccccc4s3)c(O)c1-2` it was 182 to 183 °C.
`O=C(O)Cc1cccc(C(=O)c2cc3ccsc3s2)c1` registered a melting point of 121 °C.
In the case of `CCCCn1c(=O)c2nn(S(=O)(=O)c3ccc4ccccc4c3)cc2n(CCCC)c1=O` it was 167 to 168 °C; in that of `COc1cc(C(O)c2ccc3ccccc3c2)ccc1OCc1ccccc1` (stereo unspecified), 113 to 114 °C.
In the case of `CCOC(=O)c1ccc(C(F)(F)F)c(O)n1`, the melting point was in the range of 141 to 142 °C.
The value for `O=C(O)Cn1c(=O)c(=O)[nH]c2cc(Br)c(Br)cc21` was more than 300 °C; that for `CCCOC(=O)C(OC)C(=O)Nc1cc(Cl)cc(Cl)c1` (stereo unspecified) was 89 to 92 °C.
In the case of `CN1C(=O)c2cccnc2Nc2cc([N+](=O)[O-])ccc21` it was 275 to 278 °C; in that of `Cc1c(Nc2ccc(Cl)cc2C(=O)O)cccc1C(F)(F)F`, 220 to 222 °C.
In the case of `C=CCSc1nnc(OC)c2c1CCCC2` it was 46 to 48 °C.
For `O=C(N[C@H](Cc1ccc(C(F)(F)F)cc1)[C@@H](O)c1cccc2ccccc12)c1ccc(F)c2ccccc12` (racemic), the melting point lay in the range of 195 to 196 °C.
Molecule `N#Cc1ccc(C(=O)CNc2ccc(I)cc2)cc1` came in with a melting point of 160 to 165 °C.
In the case of `CNc1cc(Cc2cnc(N)nc2N)cc(N(C)C)c1OC` it was 183 °C; in that of `Cc1ncn(-c2ccc(C(=O)N3Cc4cccn4Cc4ccccc43)c(C(F)(F)F)c2)n1`, 148 to 150 °C; in that of `O=C(CCl)C1=NOC(c2c(F)cccc2F)C1` (stereo unspecified), 82.1 to 83.4 °C.
`CC(=O)c1ccc2c(c1)Cc1cccnc1O2` had a melting point of 142 to 144 °C.
In the case of `C#CCOc1cc(-n2nc3c(Cl)cc(Cl)cn3c2=O)c(F)cc1C#N` it was 145 to 147 °C; in that of `COc1nc(NC(=S)NS(=O)(=O)c2cccnc2)nc(OC)n1`, 158 to 160 °C.
The value for `Clc1ccc2c(c1)[C@@H](c1ccccc1)[C@H]1CN(Cc3ccccc3)C[C@H]1C2` (racemic) was 115 to 117 °C.
In the case of `COc1ccc(C(C)C)cc1-c1cc(-c2nnnn2CCc2ccccc2)c(OCc2ccccc2)cc1OCc1ccccc1` it was 118 to 120 °C.
`CCOC(=O)c1cnc2nc(OCC)ccc2c1Cl` returned a melting point of 72 to 75 °C.
The value for `CCc1ccc2c(O)ccnc2c1` was 148 to 152 °C.
In the case of `COc1cc(-c2[nH]c(SC)nc2-c2ccc(F)cc2)ccn1` it was 158 °C; in that of `CCCCCCCC1(C(=O)OC)CCC(C2CCC(CCC)CC2)CC1` (stereo unspecified), 49 °C.
In the case of `CCOC(=O)C1=CN(CC)c2cc(C#N)c(F)cc2C1` it was 205 to 207 °C.
Regarding `CNC(=O)c1cc(-c2ccc(OC)cc2)nn(CC#N)c1=O`, the melting point fell in the range of 153 to 155 °C.
In the case of `O=C1[C@H]2CCC[C@H]2Nc2ccccc2N1Cc1ccc(OCc2ccccc2)cc1` (relative stereo) it was 154 to 155 °C; in that of `CC(C)Cn1c(=O)n(C)c(=O)c2c(Sc3nc(Br)n[nH]3)c(Cc3ccccc3C(F)(F)F)sc21`, 174 to 175 °C; in that of `CC1CCC(C(C)C)C(OC2C=CC(=O)O2)C1` (stereo unspecified), 70 to 71 °C.
The value for `Cc1ccc2c(=O)c(CS(C)(=O)=O)cn(C)c2c1` was 193 to 195 °C; that for `COc1cc2c(c(-c3cccc(C)c3C)c1)OC(CN)C2` (stereo unspecified) was 129 to 130 °C; that for `CC(=O)Oc1c(C)cc(NC(=O)Nc2c(-c3ccccc3C)c3cc(Cl)c(C)cc3oc2=O)cc1C` was 240 to 242 °C.
The value for `CCCC1=C(C(=O)OCC)C(c2ccccc2Cl)c2cn(C(=O)OC(C)(C)C)nc2N1` (stereo unspecified) was 144 to 147 °C; that for `O=C(O)c1[nH]c2ccc(C(O)(C(F)(F)F)C(F)(F)F)cc2c1-c1ccccc1` was 186 to 190 °C; that for `CS(=O)(=O)c1ccc(-c2cc(C=O)sc2-c2ccc(F)cc2)cc1` was 165 to 166 °C.
In turn, `COCCc1nc2c(N)nc3cc(OCc4cccc(N)c4)ccc3c2n1CC(C)(C)O` showed a melting point of 203 to 206 °C.
The value for `CCOC(=O)c1ccc(OCC(=NO)c2ccc3c(c2)C(C)(C)CCC3(C)C)cc1O` was 130 °C.
For `CC=CCC1C(=O)c2cc(OC)c(Cl)cc2C1(C)C` (racemic), the melting point was 86 °C.
The value for `COc1ccc(C2(c3ccc(N(C)C)cc3)OC(=O)c3cc(N(C)C)ccc32)cc1` (stereo unspecified) was 156 to 161 °C; that for `Cc1ccc(N(C(=O)CCl)c2c(Cl)cc(C)cc2Cl)cc1` was 140 to 141 °C.
The value for `CCOC(=O)n1c2ccccc2c(=O)n1C(c1ccccc1)c1ccccc1` was 115 to 118 °C.
In the case of `O=C(O)c1ccccc1N1CCN(c2cccc(C(F)(F)F)c2)C1=O` it was 197 to 198 °C; in that of `O=C1c2ccc(Br)cc2C(=O)N1c1ccc2c(c1)C=C2`, 167 to 168 °C; in that of `CCCc1c(OCCCOc2ccc(C(=O)O)cc2F)ccc(C(C)=O)c1OC(C)=O`, 144 to 145 °C.
Take `CC(CCNC(=O)CC#N)NC(=O)CC#N` (stereo unspecified): the melting point came out at 145 °C.
In the case of `CCCCCCCNC(=O)Nc1ccccc1C(=O)NC1CCN(C2c3ccccc3COc3ccc(Br)cc32)CC1` (stereo unspecified) it was 198 to 199 °C.
